Source: PubChem BioAssay (NCI)
“And” between values parts separate entries of the source, which are not always exact repeats. Equal entries are not always repeated.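 Five concentrations, 48 hours, 96-well plates. The concentration for 50% growth inhibition is given as GI50. TGI denotes the concentration required for complete inhibition of growth.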

How the values were obtained:
Test in all cases: NCI tumour cell line growth inhibition, 48 h
MDA-MB-231 breast = tested on: MDA-MB-231 breast
HCC-2998 colon = tested on: HCC-2998 colon
PC-3 prostate = tested on: PC-3 prostate
T-47D breast = tested on: T-47D breast
HOP-62 NSCLC = tested on: HOP-62 NSCLC
DU-145 prostate = tested on: DU-145 prostate
NCI/ADR-RES ovarian = tested on: NCI/ADR-RES ovarian
NCI-H226 lung = tested on: NCI-H226 lung
M14 melanoma = tested on: M14 melanoma
HS 578T breast = tested on: HS 578T breast
HCT-116 colon = tested on: HCT-116 colon
SK-OV-3 ovarian = tested on: SK-OV-3 ovarian
786-0 renal = tested on: 786-0 renal
MCF7 breast = tested on: MCF7 breast
CCRF-CEM leukemia = tested on: CCRF-CEM leukemia

SMILES | TGI (MDA-MB-231 breast) [µM] | TGI (HCC-2998 colon) [µM] | TGI (PC-3 prostate) [µM] | TGI (T-47D breast) [µM] | TGI (HOP-62 NSCLC) [µM] | TGI (DU-145 prostate) [µM] | TGI (NCI/ADR-RES ovarian) [µM] | TGI (NCI-H226 lung) [µM] | TGI (M14 melanoma) [µM] | TGI (HS 578T breast) [µM] | TGI (HCT-116 colon) [µM] | TGI (SK-OV-3 ovarian) [µM] | TGI (786-0 renal) [µM] | TGI (MCF7 breast) [µM] | TGI (CCRF-CEM leukemia) [µM] | GI50 (T-47D breast) [µM] | GI50 (MCF7 breast) | GI50 (CCRF-CEM leukemia) [µM] | GI50 (NCI/ADR-RES ovarian) [µM] | GI50 (HCC-2998 colon)
O=[N+]([O-])c1ccc(Nc2nc3ccccc3s2)cc1 | 40.2 | 84 | 35.1 | 14 | > 100 | > 100 | > 100 | > 100 | > 100 | > 100 |  |  |  |  |  |  |  |  |  | 
Cc1nn(-c2ccccc2)c2[nH]c(=S)cnc12 |  |  | > 100 | > 100 | > 100 | > 100 | > 100 | > 100 | > 100 | > 100 | > 100 | > 100 | > 100 | > 100 | > 100 |  |  |  |  | 
COC(=O)c1ccccc1/C=C1\Cc2cc(C)cc(C)c2C1=O | > 100 | > 100 | > 100 | > 100 | > 100 | > 100 |  | > 100 |  | > 100 | > 100 |  | > 100 | > 100 | > 100 |  |  |  |  | 
COc1cc(C2=C(C#N)C(N)OC3=C2COc2ccccc23)cc(OC)c1OC (configuration not stated) | 43.8 | 56.8 | 50.6 |  | 20.2 | 25.8 | > 100 | 91.1 | > 100 |  | 43.5 | 39.3 |  | > 100 | > 100 |  |  |  |  | 
CCCCCCCCCCCCC(O)C1CCC(C(O)CCCCCCC(O)CCCCCCCC2=CC(C)OC2=O)O1 (configuration not stated) | > 100 | 82.5 | 90.7 | > 100 | > 100 |  | > 100 | > 100 | 45.7 |  | > 100 |  | > 100 | > 100 | 79.9 | 14.8 | 23.6 µM | 15.4 | 31.5 | 
O=C(c1cccs1)N(C(=S)N1CCN(c2ccccn2)CC1)C1CCCCC1 |  |  |  |  | > 100 |  |  | 73.8 | > 100 |  | > 100 | > 100 | > 100 |  | > 100 |  |  |  |  | 
C#C[C@]1(O)CCC2C3CCc4cc(Oc5nc(F)nc(-c6c7cc8ccccc8cc7c7n6CCS7)n5)ccc4C3CCC21C (some centres not stated) |  | > 100 |  |  | > 100 |  |  | > 100 | 96 |  | > 100 | > 100 | > 100 |  | > 100 |  |  |  |  | 
N=C(N)c1csc([C@@H]2O[C@H](CO)[C@@H](O)[C@H]2O)n1 |  | > 100 |  |  |  |  |  | > 100 | > 100 |  | > 100 | > 100 |  |  | > 100 |  |  |  |  | 
Cn1c(Nc2ccccc2)c(C=Nc2ccccc2)c(=O)n(C)c1=O | > 100 |  | > 100 |  | 79.7 | > 100 | > 100 |  | > 100 |  | > 100 | > 100 | > 100 | > 100 | > 100 |  |  |  |  | 
O=c1cc(CBr)c2ccc(O)cc2o1 | > 100 | > 100 | > 100 |  | 50.3 | > 100 | > 100 | > 100 | > 100 | > 100 | > 100 | > 100 | > 100 | > 100 | > 100 |  |  |  |  | 
C(=NCc1ccccc1)c1ccccc1-c1ccccc1C=NCc1ccccc1 | > 10 |  | > 10 | > 10 | > 10 | > 10 | > 10 | > 10 | > 10 |  | > 10 | > 10 | > 10 | > 10 | > 10 |  |  |  |  | 
CCOC(=O)c1c(-c2ccc(O)c(OC)c2)c(C#N)c(=S)n(C2OC(COC(C)=O)C(OC(C)=O)C(OC(C)=O)C2OC(C)=O)c1-c1ccccc1 (configuration not stated) |  | > 100 | > 100 |  | > 100 | > 100 | > 100 |  | > 100 | > 100 | > 100 |  | > 100 | > 100 | > 100 |  | 22.4 µM and 63.3 µM |  |  | 35 µM and 90.1 µM
CC1=CC(=O)C(=O)C2=C1OC1(C2)C(C)CCC2C3(C)CCC(O)C(C)(C)C3CCC21C (configuration not stated) |  | 34 |  |  | 35 |  |  | 35.5 | 37.2 |  | 30.2 | 73.8 | 33.3 |  | 65.2 |  |  |  |  | 
NC(CCP(=O)(O)CCC1C=CC=CC1)C(=O)O (configuration not stated) | > 100 | > 100 | > 100 | > 100 |  | > 100 | > 100 |  | > 100 | > 100 | > 100 | > 100 |  |  | > 100 |  |  |  |  | 
CN(C(=O)Cc1ccc(Cl)c(Cl)c1)[C@@H]1CCCC[C@H]1[N+]1(C)CC=CC1 | > 100 | > 100 | > 100 | > 100 | > 100 | > 100 | > 100 | > 100 | > 100 |  | > 100 | > 100 | > 100 | > 100 |  |  |  |  |  | 
CCOP(=O)(OCC)c1ccc(=O)[nH]c1-c1cccs1 |  | > 100 | > 100 | > 100 | > 100 | > 100 | > 100 | > 100 | > 100 | > 100 | > 100 | > 100 | > 100 | > 100 |  |  |  |  |  | 
O=C(O)c1ccc(Nc2nc3ccccc3nc2-c2cccs2)cc1 | > 100 | > 100 | > 100 | > 100 | > 100 | > 100 | > 100 | > 100 |  | > 100 | > 100 | > 100 | > 100 |  | > 100 |  |  |  |  | 
O=C1c2ccccc2C2=Nc3ccncc3CN12 |  | > 100 | > 100 |  | > 100 | > 100 | > 100 | > 100 | > 100 |  | > 100 | > 100 | > 100 | > 100 | > 100 |  |  |  |  | 
O=c1oc2ccccc2c(O)c1C(c1ccc(/C=C/c2ccccc2)cc1)c1c(O)c2ccccc2oc1=O | 67.9 | 45.2 | > 100 | > 100 | 89.3 | > 100 | 60.3 | 74.4 |  | 75.4 | > 100 |  | 63.8 |  | > 100 |  |  |  |  | 
